Assay results: EP0369874A2, “Cardioprotective tocopherol analogs” (MERRELL DOW PHARMACEUTICALS INC., priority 1988, dated 1990)
“And” between values parts separate entries of the source, which are not always exact repeats. Equal values may be shown once. One block for each compound: values may come before it.

Columns and labels:
[1] = Free-radical scavenging: inhibition of autoxidation of 1-epinephrine (Misra and Fridovich); assay type: biochemical; details: 1-epinephrine 1 x 10⁻⁴M, EDTA 1 x 10⁻⁴M, 30°C, absorbance at 480; read-out: 50% inhibition of the autoxidation rate (ID₅₀)
Experimental: 2-(3,4-dihydro-6-hydroxy-2,5,7,8-tetramethyl-2H-1-benzopyran-2-yl)ethyl-N,N,N-trimethylammonium bromide, described in Example 1, was evaluated for its ability to reduce superoxide radicals in an assay described by H.P. Misra and J. Fridovich, 1972, J. Biol. Chem. 247, 3170-5. In this assay, the rate of autoxidation of 1-epinephrine (1 x 10⁻⁴M) in the presence of EDTA (1 x 10⁻⁴M) at 30°C is followed spectrophotometrically following the increase of absorbance at 480 mn. […] For comparison, 3,4-dihydro-6-hydroxy-2,5,7,8-tetramethyl-2H-1-benzopyran-2-carboxylic acid (CAS 53188-07-1) gave ID₅₀= 105 ± 8 µM and d,1-penicillamine (CAS 52-67-5)ID₅₀ = 73 µM in parallel experiments. Misra and Fridovich report that bovine superoxide dismutase gave 50% inhibition at […].

[2] = system: ligation-induced infarcted and reperfused rats; assay: Cardioprotective effects: coronary ligation 60 min, reperfusion 30 min, infarcted area / area at risk; assay type: in vivo
Experimental: 2-(3,4-Dihydro-2,5,7,8-tetramethyl-6-methylcarbonyloxy-2H-1-benzopyran-2-yl)ethyl-N,N,N-trimethylammonium bromide was evaluated in ligation-induced infarcted and reperfused rats as follows. One of two groups of rats was infused intravenously with a solution of test compound in saline at a rate of 2.3 ml/h (10 mg/kg/h). The control group was infused with saline at the same rate. After 10 min of drug infusion, coronary arteries were ligated surgically for 60 min, ligation was loosened to allow reperfusion for 30 min. The ligation was […] dye (Evans Blue) was injected. The animals were sacrificed and the heart ventricles were removed and weighed. The unstained tissue was dissected and weighed; this represents the "area at risk". i.e. the area that was deprived of blood supply by ligation. To determine the infarcted area, the tissue was incubated with 2,3,5-triphenyltetrazolium chloride. Infarcted tissue became light colored and could be dissected and weighed. Thus, for each rat that survived the ligation a measurement of "area at risk" and of "infarcted area" was obtained and the ratio was calculated as given in Tables II and III. TABLE II 3,4-Dihydro-2-(2-dimethylaminoethyl)-2,5,7,8-tetramethyl-2H-1-benzopyran-6-yl acetate hydrochloride was evaluated in ligation-induced infarcted and reperfused rats as follows. One of two groups of rats was infused intravenously with a solution of test compound in saline at a rate of 2.3 ml/h (10 mg/kg/h). The control group was infused with saline at the same rate. After 10 min of drug, coronary arteries were ligated surgically for 60 min, ligation was loosened to allow reperfusion for 30 min. The ligation was […] dye (Evans Blue) was injected. The animals were […] heart […] removed and weighed. The unstained tissue was dissected and weighed; this represents the "area at risk", i.e. the area that was deprived of blood supply by ligation. To determine the infarcted area, the tissue was incubated with 2,3,5-triphenyltetrazolium chloride. Infarcted tissue became light colored and was dissected and weighed. Thus, for each rat that survived the ligation a measurement of "area at risk" and of "infarcted area" was obtained and the ratio was calculated as shown in the following tables.

[3] = Affinity for cardiac tissue: radioactivity in heart and blood after intravenous 14C-labelled compound; assay type: in vivo; details: rats, 0.91 mg base/kg intravenous
Experimental: Following the procedure described in Example11, but using ¹⁴C-methyl p-toluenesulfonate in place of "cold material", ¹⁴C-labelled 2-(3,4-dihydro-2,5,7,8-tetramethyl-6-methylcarbonyloxy-2H-1benzopyranan-2-yl)ethyl-N,N,N-tri-¹⁴C-methylammonium p-toluenesulfonate was synthesized. The preparation was diluted with "cold material" to 11.74 µCi/mg base.
24 rats were given 0.91 mg base/kg by inravenous route (by canula into the jugular vein). The animals were sacrificed in groups of 3 at the time periods indicated in Table I. Immediately before sacrifice a 0.5 ml blood sample was taken from an indwelling catheter in the carotid artery. The hearts were removed, blotted and weighed. The samples of tissue and blood were solubilized with Luma Solve (a quarternary ammonium hydroxide preparation) and radioactivity was determined in a scintillation counter.

[4] = treated group, intravenous infusion 10 mg/kg/h, individual rats, listed as 3,4-Dihydro-2-(2-dimethylaminoethyl)-2,5,7,8-tetramethyl-2H-1-benzopyran-6-yl ac, acetate hydrochloride

Compound: Cc1c(C)c2c(c(C)c1O)CCC(C)(C(=O)O)O2 (stereo not shown) [3,4-dihydro-6-hydroxy-2,5,7,8-tetramethyl-2H-1-benzopyran-2-carboxylic acid]
- IC50 [1]: 105 ± 8 µM

Compound: CC(=O)Oc1c(C)c(C)c2c(c1C)CCC(C)(CC[N+](C)(C)C)O2.[Br-] (stereo not shown) [Example 11, 2-(3,4-Dihydro-2,5,7,8-tetramethyl-6-methylcarbonyloxy-2H-1-benzopyran-2-yl)ethyl-N,N,N-trimethylammonium bromide]
- Infarcted tissue ([2]; treated group, intravenous infusion 10 mg/kg/h, individual rats): 23 mg and 27 mg and 39 mg and 33 mg

Compound: CC(=O)Oc1c(C)c(C)c2c(c1C)CCC(C)(CCN(C)C)O2.Cl (stereo not shown) [Example 4, 3,4-Dihydro-2-(2-dimethylaminoethyl)-2,5,7,8-tetramethyl-2H-benzopyran-6-yl acetate hydrochloride]
- reduction of infarction ([2]; treated group (10 mg/kg/h) versus saline control group): 48.2%
- Ratio % (infarcted tissue / tissue at risk), average ([2]; treated group, intravenous infusion 10 mg/kg/h, group average): 38.0%
- Infarcted tissue [2, 4]: 337 mg and 80 mg and 51 mg (2×) and 346 mg and 18 mg and 294 mg and 34 mg
- Ratio % (infarcted tissue / tissue at risk) [2, 4]: 70.1% and 40.3% and 10% and 83.2% and 4% and 71.6% and 17.5% and 7.0%

Compound: Cc1c(C)c2c(c(C)c1O)CCC(C)(CC[N+](C)(C)C)O2 (stereo not shown) [Example 10, 2-(3,4-Dihydro-6-hydroxy-2,5,7,8-tetramethyl-2H-1-benzo-pyran-2-yl)ethyl-N,N,N-trimethylammonium bromide]
- IC50 [1]: 138 ± 14 µM

Compound: d,1-penicillamine
- IC50 [1]: 73 µM

- Ratio heart/blood ([3]; 5 min after administration): 3.05±1.46
- ng equiv/ml blood ([3]; 5 min after administration): 0.434±0.351 ng equiv/ml
- Ratio heart/blood ([3]; 15 min after administration): 6.90±8.34
- ng equiv/ml blood ([3]; 15 min after administration): 0.590±0.295 ng equiv/ml
- Ratio heart/blood ([3]; 30 min after administration): 17.33±5.42
- ng equiv/ml blood ([3]; 30 min after administration): 0.124±0.032 ng equiv/ml
- Ratio heart/blood ([3]; 1 hour after administration): 20.09±2.54
- ng equiv/ml blood ([3]; 1 hour after administration): 0.096±0.008 ng equiv/ml
- Ratio heart/blood ([3]; 2 hours after administration): 21.90±3.56
- ng equiv/ml blood ([3]; 2 hours after administration): 0.086±0.041 ng equiv/ml
- ng equiv/ml blood ([3]; 4 hours after administration): 0.054±0.013 ng equiv/ml
- Ratio heart/blood ([3]; 4 hours after administration, listed as 2-(3,4-dihydro-2,5,7,8-tetramethyl-6-methylcarbonyloxy-2H-1benzopyranan-2-yl)eth, p-toluenesulfonate): 27.15 and 27.15±4.30
- Ratio heart/blood ([3]; 6 hours after administration): 18.62±2.77
- ng equiv/ml blood ([3]; 6 hours after administration): 0.048±0.007 ng equiv/ml
- Ratio heart/blood ([3]; 8 hours after administration): 15.12±2.69
- ng equiv/ml blood ([3]; 8 hours after administration): 0.048±0.012 ng equiv/ml
- concentration of drug in heart tissue ([3]; after 8 h): 0.65 µg equiv/g
Compound: CC(=O)Oc1c(C)c(C)c2c(c1C)CCC(C)(CC[N+](C)(C)C)O2.Cc1ccc(S(=O)(=O)[O-])cc1 (stereo not shown) [Example 18, 2-(3,4-Dihydro-2,5,7,8-tetramethyl-6-methylcarbonyloxy-2H-1-benzopyran-2-yl)ethyl-N,N,N-trimethylammonium p-toluenesulfonate]
